Like-named read-outs stand apart in the source and are kept apart here.

The DC50 is the concentration at which degradation of the target reaches its halfway point.

One test deals with TEAD1 in SK-HEP1 cells (Homo sapiens (Human), UniProt P28347). The experiment in a line: TEAD degradation in SK-HEP1 cell line (immunofluorescence). It is filed as cell-based. The method, then:
(§1) Degradation of TEAD isoform TEAD1 by exemplary compounds which has been determined at different time points in two different cell lines, SK-HEP1 and NCI-H226: For the assay, SK-HEP1 (ATCC HTB-52) and NCI-H226 (ATCC CRL-5826) cells were treated in duplicates with the test compounds in a 10-point dose, 1:3 dilution steps, with the top concentration starting at 30 uM (final concentration in assay). After either 16 or 24 hour incubation at 37° C., 95% rH, and 5% CO2, the cells were fixed with 4% PFA and TEAD1 levels were probed using immunofluorescence. The primary antibody used was Anti-TEF1 (BD, 610293) and the secondary antibody used was Alexa Fluor® 488 Goat Anti-Mouse IgG (H+L) (Molecular Probes, A-11001). Finally, the cell nuclei were co-stained by Hoechst 33258 (Invitrogen, H-3569) and imaged using a high content imager. The amount of TEAD degradation was determined by quantifying the fluorescence intensity levels of Anti-TEF1 in each individual cell per well. DC50 was calculated using curve fitting software Genedata Screener. Cell media: The SK-HEP1 cells were cultured in the following media: MEM, +10% FCS, +1× GlutaMAX, +100 μM NEAA, +10 mM HEPES, +0.5% Pen/Strep. The NCI-H226 cells were cultured in the following media: RPMI 1640, +10% FBS, +1× GlutaMAX, +10 mM HEPES, +0.5% Pen/Strep.

Another test deals with TEAD1 in NCI-H226 cells (Homo sapiens (Human), UniProt P28347). The experiment in a line: TEAD degradation in NCI-H226 cell line (immunofluorescence). It is filed as cell-based. The method, then:
as §1

The mark [1] stands for this setting: 24 h incubation, read-out: DC50 SK-HEP1 24 h.
Setting [2] is: 24 hours, ranges, read-out: DC50 SK-HEP1.
[3] abbreviates: 24 h incubation, read-out: DC50 NCI-H226 24 h.
The mark [4] stands for this setting: 24 hours, ranges, read-out: DC50 NCI-H226.
[5] abbreviates: 16 h incubation, read-out: DC50 SK-HEP1 16 h.
[6] abbreviates: 16 h incubation, read-out: DC50 NCI-H226 16 h.

Chain of TEAD1 in NCI-H226 cells (P28347 whole entry): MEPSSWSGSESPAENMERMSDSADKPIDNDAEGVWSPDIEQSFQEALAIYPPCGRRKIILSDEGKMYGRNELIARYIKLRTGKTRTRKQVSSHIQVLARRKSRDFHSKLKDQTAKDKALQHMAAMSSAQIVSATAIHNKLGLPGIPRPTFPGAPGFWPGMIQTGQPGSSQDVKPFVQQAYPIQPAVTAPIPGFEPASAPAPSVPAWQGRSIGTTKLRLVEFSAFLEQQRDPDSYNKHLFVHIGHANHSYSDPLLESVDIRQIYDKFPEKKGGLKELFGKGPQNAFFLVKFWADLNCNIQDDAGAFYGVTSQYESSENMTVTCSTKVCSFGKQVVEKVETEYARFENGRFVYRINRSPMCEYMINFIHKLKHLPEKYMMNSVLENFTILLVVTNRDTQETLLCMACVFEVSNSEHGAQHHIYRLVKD
Chain of TEAD1 in SK-HEP1 cells (P28347 whole entry, canonical isoform): as the sequence (P28347 whole entry) above

As to `Cn1cc2c3cc(C(=O)NCCOCCOCCOCCOCCOc4cccc5c4C(=O)N(C4CCC(=O)NC4=O)C5=O)ccc3n(-c3ccc(C(F)(F)F)cc3)c2n1` (stereo not drawn) [Compound 16, N-(14-{[2-(2,6-dioxopiperidin-3-yl)-1,3-dioxo-2,3-dihydro-1H-isoindol-4-yl]oxy}-3,6,9,12-tetraoxatetradecan-1-yl)-2-methyl-8-[4-(trifluoromethyl)phenyl]-2H,8H-pyrazolo[3,4-b]indole-5-carboxamide], the half-maximal degradation concentration (DC50) was 250 nM at TEAD1 in SK-HEP1 cells (setting [1]), 100 to 1000 nM on TEAD1 in SK-HEP1 cells (setting [2]), 600 nM at TEAD1 in NCI-H226 cells (setting [3]) and 100 to 1000 nM at TEAD1 in NCI-H226 cells (setting [4]).
On to `Cn1cc2c3cc(C(=O)NCC#Cc4ccc(N5CCN(CCCC(=O)Nc6ccc7c(c6)CN(C6CCC(=O)NC6=O)C7=O)CC5)nc4)ccc3n(-c3ccc(C(F)(F)F)cc3)c2n1` (stereo not drawn) [Compound 19, N-(3-{6-[4-(3-{[2-(2,6-dioxopiperidin-3-yl)-1-oxo-2,3-dihydro-1H-isoindol-5-yl]carbamoyl}propyl)piperazin-1-yl]pyridin-3-yl}prop-2-yn-1-yl)-2-methyl-8-[4-(trifluoromethyl)phenyl]-2H,8H-pyrazolo[3,4-b]indole-5-carboxamide], for which the DC50 at TEAD1 in SK-HEP1 cells (setting [1]) is 40 nM; at TEAD1 in SK-HEP1 cells (setting [2]) it was below 100 nM; on TEAD1 in NCI-H226 cells (setting [3]), 70 nM; on TEAD1 in NCI-H226 cells (setting [4]), below 100 nM.
For the molecule `Cc1ncsc1-c1ccc(CNC(=O)[C@@H]2C[C@@H](O)CN2C(=O)[C@@H](NC(=O)CCCCCCCCCNC(=O)c2ccc3c(c2)c2cn(C)nc2n3-c2ccc(C(F)(F)F)cc2)C(C)(C)C)cc1` [Compound 20, (2S,4R)-1-[(2S)-3,3-dimethyl-2-[10-({2-methyl-8-[4-(trifluoromethyl)phenyl]-2H,8H-pyrazolo[3,4-b]indol-5-yl}formamido)decanamido]butanoyl]-4-hydroxy-N-{[4-(4-methyl-1,3-thiazol-5-yl)phenyl]methyl}pyrrolidine-2-carboxamide], the half-maximal degradation concentration (DC50) at TEAD1 in SK-HEP1 cells (setting [1]) was 190 nM; at TEAD1 in SK-HEP1 cells (setting [2]) it was 100 to 1000 nM; at TEAD1 in NCI-H226 cells (setting [3]) it was 300 nM; on TEAD1 in NCI-H226 cells (setting [4]) it was 100 to 1000 nM.
In the case of `Cc1ncsc1-c1ccc([C@H](C)NC(=O)[C@@H]2C[C@@H](O)CN2C(=O)[C@@H](NC(=O)CCCCCC(=O)NCCOCCOCCNC(=O)c2ccc3c(c2)c2cn(C)nc2n3-c2ccc(C(F)(F)F)cc2)C(C)(C)C)cc1` [Compound 24, N′-[(2S)-1-[(2S,4R)-4-hydroxy-2-{[(1S)-1-[4-(4-methyl-1,3-thiazol-5-yl)phenyl]ethyl]carbamoyl}pyrrolidin-1-yl]-3,3-dimethyl-1-oxobutan-2-yl]-N-(2-{2-[2-({2-methyl-8-[4-(trifluoromethyl)phenyl]-2H,8H-pyrazolo[3,4-b]indol-5-yl}formamido)ethoxy]ethoxy}ethyl) heptanediamide], the DC50 at TEAD1 in SK-HEP1 cells (setting [5]) is 700 nM; at TEAD1 in SK-HEP1 cells (setting [1]) it was 700 nM; on TEAD1 in SK-HEP1 cells (setting [2]) it was 100 to 1000 nM; at TEAD1 in NCI-H226 cells (setting [6]), 1000 nM; at TEAD1 in NCI-H226 cells (setting [3]), 1000 nM; on TEAD1 in NCI-H226 cells (setting [4]) it was 100 to 1000 nM.
Regarding `CC(=O)O[C@@H]1C[C@@H](C(=O)N[C@@H](C)c2ccc(-c3scnc3C)cc2)N(C(=O)[C@@H](NC(=O)CCCCCC(=O)NCCOCCOCCNC(=O)c2ccc3c(c2)c2cn(C)nc2n3-c2ccc(C(F)(F)F)cc2)C(C)(C)C)C1` [Compound 25, (3R,5S)-1-[(2S)-3,3-dimethyl-2-{6-[(2-{2-[2-({2-methyl-8-[4-(trifluoromethyl)phenyl]-2H,8H-pyrazolo[3,4-b]indol-5-yl}formamido)ethoxy]ethoxy}ethyl)carbamoyl]hexanamido}butanoyl]-5-{[(1S)-1-[4-(4-methyl-1,3-thiazol-5-yl)phenyl]ethyl]carbamoyl}pyrrolidin-3-yl acetate], the DC50 on TEAD1 in SK-HEP1 cells (setting [5]) was 1000 nM; at TEAD1 in SK-HEP1 cells (setting [1]) it was 1000 nM; on TEAD1 in SK-HEP1 cells (setting [2]), 100 to 1000 nM; at TEAD1 in NCI-H226 cells (setting [6]), 1000 nM; at TEAD1 in NCI-H226 cells (setting [3]) it was 1000 nM; at TEAD1 in NCI-H226 cells (setting [4]) it was 1000 to 3000 nM.
As for `Cn1cc2c3cc(C(=O)NCCOCCOCCOCCOCCNc4cccc5c4C(=O)N(C4CCC(=O)NC4=O)C5=O)ccc3n(-c3ccc(C(F)(F)F)cc3)c2n1` (stereo not drawn) [Compound 28, N-(14-{[2-(2,6-dioxopiperidin-3-yl)-1,3-dioxo-2,3-dihydro-1H-isoindol-4-yl]amino}-3,6,9,12-tetraoxatetradecan-1-yl)-2-methyl-8-[4-(trifluoromethyl)phenyl]-2H,8H-pyrazolo[3,4-b]indole-5-carboxamide], the 50% degradation concentration (DC50) on TEAD1 in SK-HEP1 cells (setting [1]) is 70 nM; at TEAD1 in SK-HEP1 cells (setting [2]), below 100 nM; on TEAD1 in NCI-H226 cells (setting [3]), 90 nM; on TEAD1 in NCI-H226 cells (setting [4]) it was below 100 nM.
Regarding `Cn1cc2c3cc(C(=O)NCCOCCOCCOCCOCCNC(=O)COc4ccc5c(c4)CCCN5C(=O)CCl)ccc3n(-c3ccc(C(F)(F)F)cc3)c2n1` [Compound 31, 2-{[1-(2-chloroacetyl)-1,2,3,4-tetrahydroquinolin-6-yl]oxy}-N-[14-({2-methyl-8-[4-(trifluoromethyl)phenyl]-2H,8H-pyrazolo[3,4-b]indol-5-yl}formamido)-3,6,9,12-tetraoxatetradecan-1-yl]acetamide], the DC50 at TEAD1 in SK-HEP1 cells (setting [1]) was 3500 nM; on TEAD1 in SK-HEP1 cells (setting [2]), 3000 to 9000 nM; at TEAD1 in NCI-H226 cells (setting [3]), 10000 nM; at TEAD1 in NCI-H226 cells (setting [4]) it was 9000 to 30000 nM.
For the molecule `Cc1ncsc1-c1ccc(CNC(=O)[C@@H]2C[C@@H](O)CN2C(=O)[C@@H](NC(=O)COCCOCCOCCOCCOCCOCCNC(=O)c2ccc3c(c2)c2cn(C)nc2n3-c2ccc(C(F)(F)F)cc2)C(C)(C)C)cc1` [Compound 32, (2S,4R)-1-[(2S)-3,3-dimethyl-2-[20-({2-methyl-8-[4-(trifluoromethyl)phenyl]-2H,8H-pyrazolo[3,4-b]indol-5-yl}formamido)-3,6,9,12,15,18-hexaoxaicosanamido]butanoyl]-4-hydroxy-N-{[4-(4-methyl-1,3-thiazol-5-yl)phenyl]methyl}pyrrolidine-2-carboxamide], the DC50 at TEAD1 in SK-HEP1 cells (setting [1]) was 1100 nM; at TEAD1 in SK-HEP1 cells (setting [2]) it was 1000 to 3000 nM; on TEAD1 in NCI-H226 cells (setting [4]), 1000 to 3000 nM.
With `Cn1cc2c3cc(C(=O)NCCOCCOCCOCCOCCNC(=O)[C@]45CCC(C)(C)C[C@H]4[C@H]4C(=O)C=C6[C@@]7(C)C=C(C#N)C(=O)C(C)(C)[C@@H]7CC[C@@]6(C)[C@]4(C)CC5)ccc3n(-c3ccc(C(F)(F)F)cc3)c2n1` [Compound 33, (4aS,6aR,6bS,8aR,12aS, 14aR, 14bS)-11-cyano-2,2,6a,6b,9,9,12a-heptamethyl-N-[14-({2-methyl-8-[4-(trifluoromethyl)phenyl]-2H,8H-pyrazolo[3,4-b]indol-5-yl}formamido)-3,6,9,12-tetraoxatetradecan-1-yl]-10,14-dioxo-1,2,3,4,4a,5,6,6a,6b,7,8,8a,9,10,12a,14,14a,14b-octadecahydropicene-4a-carboxamide], the DC50 at TEAD1 in SK-HEP1 cells (setting [1]) was 650 nM; on TEAD1 in SK-HEP1 cells (setting [2]) it was 100 to 1000 nM; at TEAD1 in NCI-H226 cells (setting [3]), 600 nM; at TEAD1 in NCI-H226 cells (setting [4]) it was 100 to 1000 nM.
For the molecule `Cc1ncsc1-c1ccc(CNC(=O)[C@@H]2C[C@@H](O)CN2C(=O)[C@@H](NC(=O)CCCCCc2cn(CCCCCCCNC(=O)c3ccc4c(c3)c3cn(C)nc3n4-c3ccc(C(F)(F)F)cc3)nn2)C(C)(C)C)cc1` [Compound 34, (2S,4R)-1-[(2S)-3,3-dimethyl-2-(6-{1-[7-({2-methyl-8-[4-(trifluoromethyl)phenyl]-2H,8H-pyrazolo[3,4-b]indol-5-yl}formamido)heptyl]-1H-1,2,3-triazol-4-yl}hexanamido)butanoyl]-4-hydroxy-N-{[4-(4-methyl-1,3-thiazol-5-yl)phenyl]methyl}pyrrolidine-2-carboxamide], the DC50 at TEAD1 in SK-HEP1 cells (setting [2]) and on TEAD1 in NCI-H226 cells (setting [4]) was 100 to 1000 nM in each case.
As to `Cc1ncsc1-c1ccc(CNC(=O)[C@@H]2C[C@@H](O)CN2C(=O)[C@@H](NC(=O)CCCCCc2cn(CCCCCCNC(=O)c3ccc4c(c3)c3cn(C)nc3n4-c3ccc(C(F)(F)F)cc3)nn2)C(C)(C)C)cc1` [Compound 35, (2S,4R)-1-[(2S)-3,3-dimethyl-2-(6-{1-[6-({2-methyl-8-[4-(trifluoromethyl)phenyl]-2H,8H-pyrazolo[3,4-b]indol-5-yl}formamido)hexyl]-1H-1,2,3-triazol-4-yl}hexanamido)butanoyl]-4-hydroxy-N-{[4-(4-methyl-1,3-thiazol-5-yl)phenyl]methyl}pyrrolidine-2-carboxamide], the DC50 at TEAD1 in SK-HEP1 cells (setting [2]) and at TEAD1 in NCI-H226 cells (setting [4]) was below 100 nM each time.
With `Cc1ncsc1-c1ccc(CNC(=O)[C@@H]2C[C@@H](O)CN2C(=O)[C@@H](NC(=O)CCCCCc2cnnn2CCCCCCCNC(=O)c2ccc3c(c2)c2cn(C)nc2n3-c2ccc(C(F)(F)F)cc2)C(C)(C)C)cc1` [Compound 37, (2S,4R)-1-[(2S)-3,3-dimethyl-2-(6-{1-[7-({2-methyl-8-[4-(trifluoromethyl)-phenyl]-2H,8H-pyrazolo[3,4-b]indol-5-yl}formamido)heptyl]-1H-1,2,3-triazol-5-yl}hexanamido)butanoyl]-4-hydroxy-N-{[4-(4-methyl-1,3-thiazol-5-yl)phenyl]methyl}pyrrolidine-2-carboxamide], the 50% degradation concentration (DC50) on TEAD1 in SK-HEP1 cells (setting [2]) and on TEAD1 in NCI-H226 cells (setting [4]) was 100 to 1000 nM in each case.
